The test system of assay [1] is beta-nerve growth factor. Put plainly: NGF level measurement in nerve cell line (ELISA). Format: cell-based, human. The settings on record: 10 ug/mL; SH-SY5Y; FIG. 12. How it is done: NGF levels were measured in order to determine the mechanism of cognitive improvement of the Poria cocos peel extracts. SH-SY5Y cells (1×10^6 cells/well) were inoculated on 6-well culture plates and cultured in DMEM/F12 (Dulbecco's modified Eagle's medium) medium containing 10% fetal bovine serum for 48 hours. After 5 days of differentiation using DMEM/F12 medium containing 10 μM retinoic acid and 3% FBS, the cells were treated with Poria cocos peel extracts (10 or 100 ug/ml). Cells were lysed using RIPA buffer, and protein content was quantitated with BCA reagent purchased from Pierce. NGF levels were measured using a beta-nerve growth factor human enzyme-linked immunosorbent assay (ELISA) KIT purchased from Abcam.
In general terms: An ELISA detects its analyte on a solid surface through an enzyme-linked reagent.

Assay [2] relates to human Tau [pS199]. Put plainly: Phosphorylated tau in neuronal cell line (ELISA). Format: cell-based. The settings on record: 10 ug/ml; SH-SY5Y; FIG. 11. On the procedure: Phosphorylated tau levels were measured in order to confirm the inhibitory effect of Poria cocos peel extracts on tau hyper-phosphorylation. SH-SY5Y cells (1×10^6 cells/well) were seeded in 6-well culture plates and cultured in DMEM/F12 (Dulbecco's modified Eagle's medium) medium containing 10% FBS (fetal bovine serum) for 48 hours. After 5 days of differentiation using DMEM/F12 medium containing 10 μM retinoic acid and 3% FBS, after 6 hours of treatment with the Poria cocos peel extracts (10 or 100 ug/mL), Aβ42 was treated and cultured for a total of 48 hours. After cell lysis using RIPA buffer, the protein content was quantitated with BCA reagent purchased from Pierce. Phosphorylated tau was measured using human Tau [pS199] enzyme-linked immunosorbent assay (ELISA) KIT purchased from Invitrogen.

In the case of `COc1cc2c(cc1OC)C(=O)C(CC1CCN(Cc3ccccc3)CC1)C2` (centres unmarked) [Donepezil], the NGF production entry in assay [1] is reported as “did not show NGF-related efficacy”. In assay [2], the “tau phosphorylation induced by Aβ42” value was “did not show the inhibitory effect on tau phosphorylation”.
